We go through two compounds from publication PMC9822194, “Chemoselective Synthesis of Mannich Adducts from 1,4-Naphthoquinones and Profile as Autophagic Inducers in Oral Squamous Cell Carcinoma” (Molecules, 2022).

The term IC50 denotes the concentration at which inhibition is half-maximal.

The subject of one data set is SCC-9 (OSCC cells). As to the kind of experiment: MTT cell viability assay (cytotoxicity), SCC9. Format: cell-based, Human. The settings on record: for Selective Index (S.I.): IC50 normal oral fibroblasts/IC50 SCC-9. The method, then: (§1) Cells and reagents. Human SCC-4, SCC-9 and SCC-25 cells, derived from a human oral tongue SCC were obtained from the ATCC (CRL-1624; CRL-1629 and CRL-1628, respectively) and maintained at 1:1 DMEM/F12 (Dulbecco’s modified Eagle medium and Ham’s F12 medium; Gibco, Thermo Fisher, Waltham, MA, USA) supplemented with 10% (v/v) FBS (fetal bovine serum; Invitrogen, Thermo Fisher, Waltham, MA, USA) and 400 ng/mL hydrocortisone (Sigma-Aldrich Co., St. Louis, MO, USA). Primary normal human gingival fibroblasts were obtained from the ATCC (PCS-201-018), maintained in DMEM supplemented with 10% (v/v) FBS, and used in a maximum of 6 passages. Cells were grown in a humidified environment containing 5% CO2 at 37 °C. […] Carboplatin in water (Fauldcarbo®; Libbs Farmacêutica, São Paulo, SP, Brazil) was used as a standard anticancer compound.
(§2) Cell viability assay (cytotoxicity) and stability assay. To assess cell viability, cells were grown in triplicate in 96-well plates (5 × 10^3 cells/well) until confluence when treated with the different compounds as in Machado et al.. Briefly, DMSO in the same concentrations was used as a 100% cell viability control. After 48 h, cells were incubated with 5 mg/mL MTT reagent (3-(4,5-dimethyl-2-thiazolyl)-2,5-diphenyl-2H-tetrazolium bromide) (Sigma-Aldrich Co., St. Louis, MO, USA) for 3.5 h. Formazan crystals were dissolved in MTT solvent (DMSO/methanol 1:1 v/v) and the absorbance at 560 nm was evaluated using an EPOCH microplate spectrophotometer (BioTek Instruments, Winooski, VT, USA) with background absorbance at 670 nm subtracted. Each of the eighteen compounds was tested at six or seven different concentrations, ranging from 0.3 µM to 200 µM in cancer cell lines (SCC-4, SCC-9 and SCC-25) and 0.4 µM to 300 µM in normal primary human gingival fibroblast.
(§3) Statistical analysis, IC50 calculation. IC50 values for MTT assays were obtained by non-linear regression using the GraphPad Prism 5.0 software (GraphPad, San Diego, CA, USA) from at least three independent experiments. Data are presented as means ± SD. A dose-response (inhibitor) vs response curve using the least squares method was used to determine the IC50, SD and R2 of the data. The selectivity index was calculated as S.I. = IC50 of the compound in normal oral fibroblast cells/IC50 of the same compound for each oral cancer cell line (SCC-4, SCC-9 and SCC-25) and the mean was calculated when indicated.

The subject of data set [1] is OSCC cell lines (SCC 4, SCC-9 and SCC-25). As to the kind of experiment: MTT assay, mean over three OSCC cell lines and average selectivity index. Format: cell-based, Human. The settings on record: for Average S.I.: average selectivity index over SCC-4, SCC-9, SCC-25 vs normal fibroblasts; for IC50: read-out: Oral Tumor Cells Mean IC50. Here is the method: as §2, §3
(Tetrazolium assays rely on reduction of a dye to a coloured formazan, in cell work by metabolically active cells.)

In data set [2] the test system is normal human gingival fibroblasts. The experiment in a line: MTT cell viability assay, normal fibroblasts. Format: cell-based. The conditions noted are these: 48 h, read-out: Primary Gengival Fibroblast IC50. Here is the method:
as §1, §2, §3

Another data set relates to SCC-4 cells. As to the kind of experiment: MTT cell viability assay, SCC4. Format: cell-based, Human. The conditions noted are these: read-out: SCC4 IC50. The method, then: as §1, §2, §3
Data set [3] has as its system SCC9 cells. As to the kind of experiment: Clonogenic assay, SCC9. Format: cell-based, Human. The conditions noted are these: 2 × IC50, 5 days. The method, then:
(§4) Clonogenic assay. The SCC9 strain and primary human fibroblasts were grown in duplicates in 24-well plates (5 × 10^4 cells/well) and incubated for 24 h. […] DMSO was used at the same concentrations as a control for 100% of viability. After 5 days of incubation, the culture medium was removed and the cells were fixed with absolute ethanol (500 µL) for 10 min, then stained with crystal 0.05% violet (Sigma Aldrich) in 20% ethanol (500 µL) for 10 min and washed with distilled water. The plates were scanned to quantify the inhibition of the formation of colonies. Then, crystal violet was solubilized in 33% acetic acid and added to the 96-well plate. Finally, the absorbance was read in a spectrophotometer (EPOCH, BioTek Instruments, Winooski, VT, USA) (595 nm).

Data set [4] relates to primary human fibroblasts. The experiment in a line: Clonogenic assay, primary human fibroblasts. In kind it is cell-based. The conditions noted are these: 2 × IC50, 5 days, normal fibroblasts. The method, then: as §4
For a further data set, the system named is SCC-25 cells. The experiment in a line: MTT cell viability assay, SCC25. Format: cell-based, Human. The conditions noted are these: read-out: SCC25 IC50. Here is the method: as §1, §2, §3
Data set [5] deals with SCC9 cells. The experiment in a line: Stability test (pre-incubation at 37 °C, then MTT on SCC9). In kind it is cell-based, Human. The conditions noted are these: 2 × IC50 pre-incubated 0-48 h at 37 °C, then SCC9 48 h. Here is the method:
After the desired treatment time was reached, the medium containing the compound was replaced with untreated culture medium and the MTT assay was performed at the end of both experiments.

Data set [6] relates to SCC9 cells. The experiment in a line: MTT assay with cell death inhibitors (ZVAD, necrostatin-1, 3-MA). In kind it is cell-based, Human. The conditions noted are these: SCC9, 3-MA 5000 µM. The method, then:
as §2, with “After 48 h, cells were incubated with 5 mg/mL MTT reagent (3-(4,5-dimethyl-2-thiazolyl)-2,5-diphenyl-2H-tetrazolium bromide) (Sigma-Aldrich Co., St.” left out

Molecules are shown by their SMILES. Read-outs that look alike come from different tables or passages of the source.

As for `N.N.O=C([O-])C1(C(=O)[O-])CCC1.[Pt+2]` [Carboplatin], the “Selective Index (S.I.)” value in the data set with SCC-9 (OSCC cells) was 0.85. For the same compound, the IC50 in the data set with SCC-9 (OSCC cells) (MTT, 48 h, Table 1, read-out: SCC9—Oral Cancer IC50) was determined as 223 µM; in [1] (mean of SCC9, SCC25, SCC4) it was 228 µM; in data set [2] (MTT, Table 1) it was 193 µM; with SCC-4 cells (MTT, 48 h) it was 195 µM; in the data set with SCC-25 cells (MTT, 48 h) it was 264 µM. Besides, the “Average S.I.” value was 0.85 in [1] and 0.847 in data set [1] (listed as carboplatin). For the same compound, the “Cytotoxicity in clonogenic assay (colony formation)” value in the data set on SCC9 cells [3] was “high cytotoxicity”. For the same compound, the “Cells viable and able to form colonies” value in [4] was “less than 50%”. For the same compound, in the data set on SCC9 cells [5], the “Stability at 37 °C (retained cytotoxicity)” value is “stable even after 48 h”.

On to `CC(C)=CC[C@@H](O)C1=CC(=O)c2c(O)ccc(O)c2C1=O` [Shikonin, reference compound], for which, in the data set with SCC9 cells [6], the “Effect of autophagy inhibitor 3-MA on induced cell death” value was “reduced cell death”. Moreover, the IC50 was 1.81 µM with SCC-9 (OSCC cells) (Homo sapiens, SCC-9, 48 h, read-out: SCC9 IC50); 1.8 µM with SCC-9 (OSCC cells) (Homo sapiens, SCC-9, 48 h, read-out: SCC9—Oral Cancer IC50); 1.74 µM in [1] (Homo sapiens); 1.72 µM in data set [2] (Homo sapiens, Fibroblast); 1.91 µM in the data set with SCC-4 cells (Homo sapiens, SCC-4, 48 h); 1.5 µM in the data set with SCC-25 cells (Homo sapiens, SCC-25, 48 h). In the data set with SCC-9 (OSCC cells), the “Selective Index (S.I.)” value came to 0.95. In addition, the “Average S.I.” value in data set [1] was 0.98.
